Measurements published in PubChem BioAssay (NCI).
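Briefly, cells in 96-well plates were exposed to five compound concentrations for 48 h, and endpoints were estimated by linear interpolation. Here, GI50 denotes the concentration required for 50% inhibition of growth. The concentration for full growth arrest is given as TGI.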

Experiments:
Test in all cases: DTP human tumour cell line panel, 48 h
BT-549 breast = test system: BT-549 breast
CAKI-1 renal = test system: CAKI-1 renal
EKVX NSCLC = test system: EKVX NSCLC
HCT-116 colon = test system: HCT-116 colon
HOP-92 NSCLC = test system: HOP-92 NSCLC
K-562 leukemia = test system: K-562 leukemia
PC-3 prostate = test system: PC-3 prostate
RXF 393 renal = test system: RXF 393 renal
SK-OV-3 ovarian = test system: SK-OV-3 ovarian
SNB-75 CNS = test system: SNB-75 CNS

For COC(=O)[C@H](C)NC(=O)NC(=O)NC(=O)CI, the GI50 (BT-549 breast) was 15 µM, the TGI (BT-549 breast) was 28.6 µM and the GI50 (CAKI-1 renal) was 2.53 µM. The TGI (CAKI-1 renal) was 6.73 µM, the GI50 (EKVX NSCLC) was 17.5 µM and the TGI (EKVX NSCLC) was 32 µM. The GI50 (HCT-116 colon) was 13.9 µM, the TGI (HCT-116 colon) was 28.4 µM and the GI50 (HOP-92 NSCLC) was 6.79 µM. The TGI (HOP-92 NSCLC) was 19.7 µM, the GI50 (K-562 leukemia) was 4.16 µM and the TGI (K-562 leukemia) was 17 µM. For the same compound, the GI50 (PC-3 prostate) was 17.1 µM, the TGI (PC-3 prostate) was 32.2 µM and the GI50 (RXF 393 renal) was 12.5 µM. The TGI (RXF 393 renal) was 25.5 µM, the GI50 (SK-OV-3 ovarian) was 19 µM and the TGI (SK-OV-3 ovarian) was 39.1 µM. It also gave a GI50 (SNB-75 CNS) of 15.9 µM and a TGI (SNB-75 CNS) of 30.3 µM.
N#C/C(=C1C=C(Br)/C(=N\O)C=C\1Cl)c1cccc2ccccc12 gave a TGI (BT-549 breast) of 22.1 µM, a TGI (CAKI-1 renal) of 23.4 µM and a TGI (EKVX NSCLC) of 23.3 µM. The TGI (HCT-116 colon) was 15.6 µM, the TGI (HOP-92 NSCLC) was 21.9 µM and the TGI (K-562 leukemia) was 14.3 µM. The TGI (PC-3 prostate) was 10.9 µM, the TGI (RXF 393 renal) was 4.44 µM and the TGI (SK-OV-3 ovarian) was 20.3 µM. It also gave a TGI (SNB-75 CNS) of 0.79 µM.
